Experimental data reported in patent US11299487B2, “Compounds and compositions as modulators of TLR signaling” (Neuropore Therapies, Inc., priority 2019, dated 2022).

What was measured:
human TLR2 [1] = molecular target: T1, human TLR2 (Homo sapiens, UniProt O60603); assay: HEK-Blue hTLR2 antagonism assay (SEAP reporter) with agonist Pam3CSK4 (TLR1/2 agonist); assay type: cell-based; conditions: HEK-Blue hTLR2 cells, ~3×EC50 Pam3CSK4, 18 h, SEAP OD 655 nm, 8-point dilutions
T1 construct: host or cells: HEK-Blue hTLR2 (HEK-293)
Method: (§1) Synthetic diacylated lipoprotein (Pam2CSK4, TLR2/6 agonist) and synthetic triacylated lipoprotein (Pam3CSK4, TLR1/2 agonist) were obtained from InvivoGen and were dissolved in endotoxin-free water to a concentration 1 mg/mL, vortexed until complete solubilization, and stored in aliquots at −20° C. Prior to addition to cells, an aliquot of the dissolved ligand was vortexed shortly and then was diluted in medium to 25 ng/mL Pam2CSK4 or 1000 ng/mL Pam3CSK4.
(§2) Test compounds were solubilized fresh to 10-20 mM stocks in DMSO and sonicated for 5-10 minutes in a water bath sonicator. Serial dilutions were prepared in DMSO, and then diluted in medium. The final concentration of DMSO used in the assay was 1%.
(§3) HEK-Blue hTLR2 reporter cells (InvivoGen) are HEK-293 cells stably expressing both the human TLR2 gene and a secreted embryonic alkaline phosphatase (SEAP) reporter construct downstream of NFκB promotor sites. HEK-Blue hTLR2 reporters were cultured according to manufacturer's protocol using Dulbecco's Modified Eagle Medium (DMEM; Gibco) containing 1× GlutaMax (Gibco), 10% heat-inactivated Fetal Bovine Serum (Gibco), Pen-Strep (50 U/mL penicillin, 50 μg/mL streptomycin, Gibco), 100 μg/mL Normocin (InvivoGen), and the selective antibiotic, 1×HEK-Blue Selection (InvivoGen). Quanti-Blue reagent (InvivoGen) for detection and quantification of secreted alkaline phosphatase was dissolved in 100 mL of endotoxin-free water, warmed to 37° C. for 30 minutes and then filtered using a 0.2 μm membrane.
(§4) On day 1, 50 μL of each test compound dilution in duplicates or a vehicle control was added to each well of a 96-well plate followed by addition of 150 μL of HEK-Blue hTLR2 cell suspension (1×10^5 cells/well) and incubated at 37° C./5% CO2 for 2 h. Next, 50 μL of an approximate 3×EC50 concentration of each agonist (Pam2CSK4 or Pam3CSK4) was added to the wells containing test compounds or the vehicle control. The plates were then incubated at 37° C./5% CO2 for 18 h. For each assay run, non-treated HEK-Blue hTLR2 cells were treated with serial dilutions of agonists to determine EC50 values for the respective run.
(§5) On day 2, secreted alkaline phosphatase (SEAP) activity was detected in cell culture supernatants. In brief, 20 μL was collected from each well and transferred to a 96-well plate. Next, 200 μL of Quanti-Blue detection reagent was added to each well. Plates were incubated at room temperature for 15 min. and SEAP activity was assessed by spectrophotometer OD reading at 655 nm. […] IC50 values were calculated based on 8-point dilutions for each compound.

human TLR2 [2] = molecular target: T1, human TLR2; assay: HEK-Blue hTLR2 antagonism assay (SEAP reporter) with agonist Pam2CSK4 (TLR2/6 agonist); assay type: cell-based; conditions: HEK-Blue hTLR2 cells, ~3×EC50 Pam2CSK4, 18 h, SEAP OD 655 nm, 8-point dilutions
Method: as §1, §2, §3, §4, §5

T1 sequence (O60603 21-784): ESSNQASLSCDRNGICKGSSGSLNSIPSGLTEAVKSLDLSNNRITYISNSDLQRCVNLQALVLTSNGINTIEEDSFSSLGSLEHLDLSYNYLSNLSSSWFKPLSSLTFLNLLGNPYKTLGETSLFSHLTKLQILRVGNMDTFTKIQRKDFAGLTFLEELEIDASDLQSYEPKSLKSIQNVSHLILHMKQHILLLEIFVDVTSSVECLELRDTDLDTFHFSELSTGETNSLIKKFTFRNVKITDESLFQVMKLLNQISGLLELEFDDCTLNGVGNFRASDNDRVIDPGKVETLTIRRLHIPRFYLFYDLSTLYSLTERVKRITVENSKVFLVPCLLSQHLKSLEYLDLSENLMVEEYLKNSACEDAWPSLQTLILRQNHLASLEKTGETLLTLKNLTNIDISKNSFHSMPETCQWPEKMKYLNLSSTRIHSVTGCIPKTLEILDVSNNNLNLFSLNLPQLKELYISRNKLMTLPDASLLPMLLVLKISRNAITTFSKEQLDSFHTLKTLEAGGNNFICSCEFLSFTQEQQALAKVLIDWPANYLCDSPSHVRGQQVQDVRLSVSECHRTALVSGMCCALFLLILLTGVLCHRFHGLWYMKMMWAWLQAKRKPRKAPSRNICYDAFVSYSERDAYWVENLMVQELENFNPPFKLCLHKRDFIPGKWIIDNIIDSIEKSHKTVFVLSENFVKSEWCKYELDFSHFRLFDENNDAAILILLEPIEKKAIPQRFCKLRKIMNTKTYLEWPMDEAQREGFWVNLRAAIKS

SMILES	IC50 (human TLR2 [1]; Table B)	IC50 (human TLR2 [2]; Table B)	IC50 (human TLR2 [1]; Table A)	IC50 (human TLR2 [2]; Table A)
O=Cc1cc(C(=O)Nc2ccc(N3Cc4ccccc4C3)nc2)cc(F)c1O [Compound B86, 3-fluoro-5-formyl-4-hydroxy-N-(6-(isoindolin-2-yl)pyridin-3-yl)benzamide]	1.8 µM	4.3 µM		
O=Cc1cc(-c2cnc(-c3cnc(N4CCCC4)c(C(F)(F)F)c3)s2)cc(F)c1O [Compound A114, 3-fluoro-2-hydroxy-5-(2-(6-(pyrrolidin-1-yl)-5-(trifluoromethyl)pyridin-3-yl)thiazol-5-yl)benzaldehyde]			0.4 µM	0.7 µM
CC1(C)CN(c2ccc(NC(=O)c3cc(F)c(O)c(C=O)c3)cn2)c2ccc(F)cc21 [Compound B99, 3-fluoro-N-(6-(5-fluoro-3,3-dimethylindolin-1-yl)pyridin-3-yl)-5-formyl-4-hydroxybenzamide]	0.5 µM	0.6 µM		
Cc1nc(-c2cccc(N3CCCC3)c2)sc1-c1cc(F)c(O)c(C=O)c1 [Compound A103, 3-fluoro-2-hydroxy-5-(4-methyl-2-(3-(pyrrolidin-1-yl)phenyl)thiazol-5-yl)benzaldehyde]			1.3 µM	3.9 µM
CN1CCN(/N=C/c2cc(-c3cnn(-c4ccc(N5CCCC5)cc4)c3)cc(F)c2O)CC1 [Compound A35, (E)-2-fluoro-6-(((4-methylpiperazin-1-yl)imino)methyl)-4-(1-(4-(pyrrolidin-1-yl)phenyl)-1H-pyrazol-4-yl)phenol]			0.7 µM	1.6 µM
O=Cc1cc(-c2ccn(-c3ccc(N4CCOCC4)cc3)n2)cc(F)c1O [Compound A29, 3-fluoro-2-hydroxy-5-(1-(4-morpholinophenyl)-1H-pyrazol-3-yl)benzaldehyde]			7.6 µM	6.4 µM
Cc1nc(-c2ccc(N3CCCC3)cc2)sc1-c1cc(F)c(O)c(C=O)c1 [Compound A98, 3-fluoro-2-hydroxy-5-(4-methyl-2-(4-(pyrrolidin-1-yl)phenyl)thiazol-5-yl)benzaldehyde]			1 µM	1.4 µM
COc1cc(-c2cnn(Cc3ccccc3)c2)cc(C=O)c1O [Compound A4, 5-(1-benzyl-1H-pyrazol-4-yl)-2-hydroxy-3-methoxybenzaldehyde]			10.5 µM	8.5 µM
O=Cc1cc(-c2cnn(-c3cccc(N4CCCCC4)c3)c2)cc(F)c1O [Compound A23, 3-fluoro-2-hydroxy-5-(1-(3-(piperidin-1-yl)phenyl)-1H-pyrazol-4-yl)benzaldehyde]			0.9 µM	0.8 µM
O=Cc1cc(C(=O)Nc2ccc(N3CCCN(C4CC4)CC3)cc2)cc(F)c1O [Compound B70, N-(4-(4-cyclopropyl-1,4-diazepan-1-yl)phenyl)-3-fluoro-5-formyl-4-hydroxybenzamide]	6.5 µM	11.5 µM		
O=Cc1cc(-c2csc(-c3ccc(N4C[C@H]5CCC[C@H]5C4)cc3)n2)cc(F)c1O [Compound A97, 3-fluoro-5-(2-(4-((3aR,6aS)-hexahydrocyclopenta[c]pyrrol-2(1H)-yl)phenyl)thiazol-4-yl)-2-hydroxybenzaldehyde]			0.3 µM	0.9 µM
O=Cc1cc(C(=O)Nc2ccc(N3Cc4ccccc4C3)cc2)cc(F)c1O [Compound B81, 3-fluoro-5-formyl-4-hydroxy-N-(4-(isoindolin-2-yl)phenyl)benzamide]	0.5 µM	1 µM		
O=Cc1cc(C(=O)Nc2ccc(N3CCOc4ccccc43)cc2)cc(F)c1O [Compound B90, N-(4-(2,3-dihydro-4H-benzo[b][1,4]oxazin-4-yl)phenyl)-3-fluoro-5-formyl-4-hydroxybenzamide]	1.9 µM	2.9 µM		
O=Cc1c(O)cc(C#Cc2ccc(N3CCCCC3)cc2)cc1F [Compound B5, 2-fluoro-6-hydroxy-4-((4-(piperidin-1-yl)phenyl)ethynyl)benzaldehyde]	1.1 µM	1.9 µM		
Oc1c(F)cc(-c2cnn(-c3ccc(N4CCCC4)cc3)c2)cc1C1OCCCO1 [Compound A34, 2-(1,3-dioxan-2-yl)-6-fluoro-4-(1-(4-(pyrrolidin-1-yl)phenyl)-1H-pyrazol-4-yl)phenol]			3.9 µM	6.9 µM
O=Cc1cc(-c2nc(-c3ccccc3)co2)cc(F)c1O [Compound A90, 3-fluoro-2-hydroxy-5-(4-phenyloxazol-2-yl)benzaldehyde]			4.5 µM	6.5 µM
O=Cc1cc(C(=O)Nc2ccc(N3CCN(c4ccccc4)CC3)cc2)cc(F)c1O [Compound B83, 3-fluoro-5-formyl-4-hydroxy-N-(4-(4-phenylpiperazin-1-yl)phenyl)benzamide]	0.3 µM	1 µM		
O=Cc1cc(-c2ccc(-c3ccc(N4CCCC4)cc3)s2)cc(F)c1O [Compound A50, 3-fluoro-2-hydroxy-5-(5-(4-(pyrrolidin-1-yl)phenyl)thiophen-2-yl)benzaldehyde]			0.9 µM	4.1 µM
Oc1c(F)cc(-c2cnn(-c3ccccc3)c2)cc1F [Compound A18, 2,6-difluoro-4-(1-phenyl-1H-pyrazol-4-yl)phenol]			> 100 µM	> 100 µM
O=Cc1cc(-c2ccn(-c3cccc(N4CCOCC4)c3)n2)cc(F)c1O [Compound A32, 3-fluoro-2-hydroxy-5-(1-(3-morpholinophenyl)-1H-pyrazol-3-yl)benzaldehyde]			17.4 µM	12.7 µM
O=Cc1cc(C(=O)Nc2ccc(N3CCC4(CC4)C3)cc2)cc(F)c1O [Compound B79, N-(4-(5-azaspiro[2.4]heptan-5-yl)phenyl)-3-fluoro-5-formyl-4-hydroxybenzamide]	1.4 µM	4.1 µM		
O=Cc1cc(-c2cnn(-c3ccccc3)c2)cc(F)c1O [Compound A11, 3-fluoro-2-hydroxy-5-(1-phenyl-1H-pyrazol-4-yl)benzaldehyde]			2 µM	2.3 µM
COc1cc(-c2cnn(-c3cccc(C(F)(F)F)c3)c2)cc(C=O)c1O [Compound A9, 2-hydroxy-3-methoxy-5-(1-(3-(trifluoromethyl)phenyl)-1H-pyrazol-4-yl)benzaldehyde]			5.1 µM	3.8 µM
COc1ccc(Cn2cc(-c3cc(C=O)c(O)c(OC)c3)cn2)cc1 [Compound A10, 2-hydroxy-3-methoxy-5-(1-(4-methoxybenzyl)-1H-pyrazol-4-yl)benzaldehyde]			5.2 µM	5.2 µM
O=Cc1cc(C(=O)Nc2ccc(N3CCN(c4ccccc4)CC3)nc2)cc(F)c1O [Compound B102, 3-fluoro-5-formyl-4-hydroxy-N-(6-(4-phenylpiperazin-1-yl)pyridin-3-yl)benzamide]	1 µM	2 µM		
Cn1cc(-c2ccc(NC(=O)c3cc(F)c(O)c(C=O)c3)cc2)cn1 [Compound B63, 3-fluoro-5-formyl-4-hydroxy-N-(4-(1-methyl-1H-pyrazol-4-yl)phenyl)benzamide]	11.3 µM	30.1 µM		
O=Cc1cc(C(=O)Nc2ccc(N3CCCC3)c(C(F)(F)F)c2)cc(F)c1O [Compound B91, 3-fluoro-5-formyl-4-hydroxy-N-(4-(pyrrolidin-1-yl)-3-(trifluoromethyl)phenyl) benzamide]	1.6 µM	2.2 µM		
O=Cc1cc(NC(=O)c2ccccc2)cc(F)c1O [Compound B9, N-(3-fluoro-5-formyl-4-hydroxyphenyl)benzamide]	6.8 µM	8.1 µM		
